Experiments:
Clock mutant mouse = assay: Effect on phase delay in Clock mutant mouse (rotating basket exercise); assay type: in vivo; settings: for % in the initial dark period (rotating basket exercise) / % in the initial dark period (rotating basket exercise), recovery of decrease: vs solvent; for % in the initial dark period (rotating basket exercise): FIG. 3; for exercise starting time: vs average of 7-day preliminary treatment period; for % in the initial dark period (rotating basket exercise), recovery of decrease: FIG. 1
Experimental: Effect on Phase Delay of Compound A in Clock Mutant Mouse
Male Clock mutant mouse (Trans Genic Inc.) and male ICR mouse (CLEA Japan Inc.) were used as a wild-type control in this study. All animals were bred in groups of 4 or 5 animals per cage in a light control room (lights on at 7:00 and 12 hour light/dark cycle) prior to behavioral test. Food and tap water were freely provided.
21-Week-old and 23-week-old mice were used in experiment 1 and experiment 2 (in each experiment, Clock mutant mouse; n=36, ICR mouse; n=12). In both experiments, the animals were placed in a test room and individually bred under 10 hr/14 hr light/dark cycle (lights on at 7:00 and lights off at 17:00) in a cage provided with a rotating basket (diameter 14.5 cm). In addition, 15 Clock mutant mice and 10 ICR mice were prepared as extra animals in the same room in each experiment. Data on the rotating basket exercise were collected every minute and analyzed using Clocklab (registered trade mark) (Actimetrics, Evanston, Ill., USA).
The animals were first acclimated to a new light/dark cycle for about 2 weeks. In the acclimation period, a total number of exercises in 24 hours (total number) for each day, and the percentage of the number of exercise in the light period (7:00 to 17:00) (percentage in the light period) in the total number were measured.
In the preliminary treatment period, the mice were orally administered with a solvent (0.5% methylcellulose solution) at 15:45-16:19 once daily for 2 weeks for acclimation to administration prior to the drug treatment period. […] The solvent or compound A was orally administered to the animals at 15:45 to 16:13 once a day for 7 days.
In the drug treatment period, % in the initial dark period was measured, and the exercise start time was measured using same as an additional index in the Clock mutant mice. Using the aforementioned parameter, the minimum effective dose of compound A in these experiments (experiments 1 and 2) was determined.
The data are shown in average ±SEM. A statistical significance between ICR mouse and Clock mutant mouse was determined by Student's t-test (experiment 1) or Aspin-Welch test (experiment 2) in which P≤0.05 was significant. For analysis of multiple administration of compound A, the statistical significance was determined by one-sided Williams' 20 test (experiments 1 and 2) in which P≤0.025 was significant.

plasma melatonin = assay: Effect on nocturnal plasma melatonin concentration in rats; assay type: in vivo, rat; settings: Wistar rats, 3 mg/kg orally once per day for 7 days, vs vehicle, FIG. 5
Experimental: Effect of Compound A on Nocturnal Plasma Melatonin Concentration in Rats
9-Week-old male Wistar rats (CLEA Japan Inc.) were used for this study. All rats (n=12) were bred in groups of 2 to 5 animals per cage in a light control room (lights on at 7:00 and 12 hour light/dark cycle) prior to the test and made to get used to it for about two weeks. Food and tap water were freely provided.
A solvent or compound A was orally administered to 11-week-old rats at a dose of 3 mg/kg once per day at 17:00-17:15 for 7 days. After the final treatment, blood samples (500 μL) were successively collected from the tail artery of each rat at 20:00 (ZT (Zeitgeber Time)) 13), 22:00 (ZT15), 0:00 (ZT17), 2:00 (ZT19), 4:00 (ZT21), 6:00 (ZT23) and 8:00 (ZT25) in EDTA-2Na-containing tube (Lot No. MP0831, CAPIJECT (registered trade mark), Terumo Corporation, Japan). The blood samples were centrifuged at 15,000 rpm, 4° C. for 5 min and the supernatant (200 μL) was preserved at -80° C. until they were treated for radioimmunoassay. Melatonin concentration was measured using a kit (Lot No. 2428.10, BUHLMANN Laboratories AG, Switzerland) commercially available from T.N. TECHNOS., Limited, Japan.
The data are shown in average ±SEM (6 rats in each group). The statistical significance between samples and in samples was determined by repeated measurement ANOVA in which P<0.05 was significant.

delirium [1] = settings: five patients diagnosed as having delirium; cited from earlier work
delirium [2] = settings: of 10 patients over 65 years of age who developed delirium with heart failure etc.; cited from earlier work

Structure (SMILES) | % in the initial dark period (rotating basket exercise) (Clock mutant mouse; 0.003 mg/kg orally once a day for 7 days) | % in the initial dark period (rotating basket exercise) (Clock mutant mouse; 0.03 mg/kg orally once a day for 7 days) | exercise starting time (Clock mutant mouse; 0.03 mg/kg repetitive oral administration, FIG. 4) | % in the initial dark period (rotating basket exercise), recovery of decrease (Clock mutant mouse; 0.3 mg/kg orally once a day for 7 days) | exercise starting time (Clock mutant mouse; 0.3 mg/kg repetitive oral administration, FIG. 2) | % in the initial dark period (rotating basket exercise), recovery of decrease (Clock mutant mouse; 1 mg/kg orally once a day for 7 days) | exercise starting time (Clock mutant mouse; 1 mg/kg repetitive oral administration, FIG. 2) | minimum effective dose (phase retardation) (Clock mutant mouse; oral, once a day for 7 days) [mg/kg] | level of melatonin concentration (plasma) (plasma melatonin) | start of plasma melatonin (plasma melatonin) | recovery from delirium symptoms (delirium [1]) | patients in whom delirium was improved (delirium [2]) [patients]
CC(=O)NCC[C@@H]1CCc2ccc3nc(C)oc3c21 [compound A, (S)—N-[2-(2-methyl-7,8-dihydro-6H-indeno[5,4-d][1,3]oxazol-8-yl)ethyl]acetamide] | did not have a significant effect | did not have a significant effect | significantly advanced | improvement effect was significant | significantly advanced | improvement effect was significant | significantly advanced | 0.03 | significantly increased | advanced |  | 
CCC(=O)NCC[C@@H]1CCc2ccc3c(c21)CCO3 [ramelteon, (S)—N-[2-(1,6,7,8-tetrahydro-2H-indeno[5,4-b]furan-8-yl)ethyl]propionamide] |  |  |  |  |  |  |  |  |  |  | recovered from delirium symptoms the next day | 6

From patent publication US11173147B2, “Prophylactic or therapeutic agent for delirium” (priority 2016, dated 2021)
